Results taken from US9290451B2 (Hoffmann-La Roche Inc., priority 2011, dated 2016).

Experiments:
human CB2 receptors = human CB2 receptors (Homo sapiens (Human), UniProt P34972); experiment: cAMP assay, CHO cells expressing human CB2 receptors; assay type: cell-based; conditions: CHO cells expressing human CB2, cAMP; read-out: human CB2 EC50
Procedure, shortened: (§1)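 Seed CHO cells 17–24 h ahead; replace medium with Krebs Ringer bicarbonate containing 1 mM IBMX for 30 min at 30 °C; add compounds for 30 min at 30 °C; lyse, add TR-FRET cAMP reagents for 2 h at room temperature; read and convert to cAMP via standard curve; fit EC50.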

human CB1 receptors = human CB1 receptors (Homo sapiens (Human), UniProt P21554); experiment: cAMP assay, CHO cells expressing human CB1 receptors; assay type: cell-based; conditions: CHO cells expressing human CB1, cAMP; read-out: human CB1 EC50
Procedure, shortened: as §1

Chain of human CB2 receptors (P34972 whole entry): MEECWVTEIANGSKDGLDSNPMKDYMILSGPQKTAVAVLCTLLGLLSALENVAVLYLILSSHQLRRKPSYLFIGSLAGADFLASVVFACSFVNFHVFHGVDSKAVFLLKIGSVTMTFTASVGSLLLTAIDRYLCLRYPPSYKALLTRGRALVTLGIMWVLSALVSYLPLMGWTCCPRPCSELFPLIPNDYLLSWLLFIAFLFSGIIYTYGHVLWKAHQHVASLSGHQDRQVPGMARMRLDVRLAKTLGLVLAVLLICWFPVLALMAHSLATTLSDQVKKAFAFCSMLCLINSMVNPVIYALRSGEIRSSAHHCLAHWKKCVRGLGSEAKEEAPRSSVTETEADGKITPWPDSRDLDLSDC
Chain of human CB1 receptors (P21554 whole entry): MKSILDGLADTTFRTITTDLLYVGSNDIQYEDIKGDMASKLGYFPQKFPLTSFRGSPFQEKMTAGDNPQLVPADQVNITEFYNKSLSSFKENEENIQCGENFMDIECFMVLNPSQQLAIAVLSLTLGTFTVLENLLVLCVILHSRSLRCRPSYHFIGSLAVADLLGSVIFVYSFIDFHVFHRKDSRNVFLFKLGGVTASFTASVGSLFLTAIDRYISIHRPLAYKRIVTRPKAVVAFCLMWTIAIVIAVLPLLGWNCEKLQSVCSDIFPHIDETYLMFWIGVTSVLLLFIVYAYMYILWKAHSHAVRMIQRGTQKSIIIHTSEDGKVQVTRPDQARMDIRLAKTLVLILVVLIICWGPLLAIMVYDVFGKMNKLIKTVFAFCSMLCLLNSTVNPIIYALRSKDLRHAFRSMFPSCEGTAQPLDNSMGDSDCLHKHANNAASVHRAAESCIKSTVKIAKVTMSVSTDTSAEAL

Row | SMILES | EC50 (human CB2 receptors) [nM] | EC50 (human CB1 receptors) [nM]
1 | CC(C)C[C@H](NC(=O)c1ccc(C2CC2)c(OCC2CCCO2)n1)C(N)=O (stereo partly drawn) [Example 186, N-((S)-1-Amino-4-methyl-1-oxopentan-2-yl)-5-cyclopropyl-6-((tetrahydrofuran-2-yl)methoxy)picolinamide] | 1.1 | 1490
2 | CC(C)C[C@H](NC(=O)c1ccc(C2CC2)c(Oc2ccc(F)cc2)n1)C(N)=O [Example 187, 5-Cyclopropyl-6-(4-fluoro-phenoxy)-pyridine-2-carboxylic acid ((S)-1-carbamoyl-3-methyl-butyl)-amide] | 52.2 | > 10000
3 | CNC(=O)[C@@H](NC(=O)c1ccc(Br)c(OCC2CCCO2)n1)C(C)(C)C (stereo partly drawn) [Example 188, 5-Bromo-6-(tetrahydro-furan-2-ylmethoxy)-pyridine-2-carboxylic acid ((S)-2,2-dimethyl-1-methylcarbamoyl-propyl)-amide] | 5 | 375
4 | Cc1nc(C2(NC(=O)c3ccc(C4CC4)c(OCc4ccccn4)n3)CCC2)no1 [Example 189, 5-Cyclopropyl-N-(1-(5-methyl-1,2,4-oxadiazol-3-yl)cyclobutyl)-6-(pyridin-2-ylmethoxy)picolinamide] | 381 | > 10000
5 | Cc1nc(C(NC(=O)c2ccc(C3CC3)c(OCC3CC3)n2)C2CC2)no1 (stereo not shown) [Example 190, 5-Cyclopropyl-N-(cyclopropyl(5-methyl-1,2,4-oxadiazol-3-yl)methyl)-6-(cyclopropylmethoxy)picolinamide] | 20.4 | > 10000
6 | CC(C)[C@](C)(CO)NC(=O)c1ccc(C2CC2)c(OCC2CC2)n1 [Example 191, 5-Cyclopropyl-6-cyclopropylmethoxy-pyridine-2-carboxylic acid ((R)-1-hydroxymethyl-1,2-dimethyl-propyl)-amide] | 57.7 | > 10000
7 | CNC(=O)[C@@H](NC(=O)c1cccc(-c2cccc(Cl)c2)n1)C(C)(C)C [Example 192, (S)-6-(3-Chlorophenyl)-N-(3,3-dimethyl-1-(methylamino)-1-oxobutan-2-yl)picolinamide] | 64.2 | 1540
8 | CNC(=O)[C@H](CC(C)(C)C)NC(=O)c1cccc(-c2cccc(Cl)c2)n1 [Example 193, (S)-6-(3-Chlorophenyl)-N-(4,4-dimethyl-1-(methylamino)-1-oxopentan-2-yl)picolinamide] | 99.4 | > 10000
9 | CC(C)(CCO)NC(=O)c1ccc(C2CC2)c(OCC2CC2)n1 [Example 194, 5-Cyclopropyl-6-(cyclopropylmethoxy)-N-(4-hydroxy-2-methylbutan-2-yl)picolinamide] | 99.1 | > 10000
10 | CNC(=O)[C@@H](NC(=O)c1ccc(C2CC2)c(OCC2CCOCC2)n1)C(C)(C)C [Example 195, (S)-5-Cyclopropyl-N-(3,3-dimethyl-1-(methylamino)-1-oxobutan-2-yl)-6-((tetrahydro-2H-pyran-4-yl)methoxy)picolinamide] | 1.4 | 206
11 | CNC(=O)[C@H](CC(C)(C)C)NC(=O)c1ccc(C2CC2)c(OCC2CCOCC2)n1 [Example 196, (S)-5-Cyclopropyl-N-(4,4-dimethyl-1-(methylamino)-1-oxopentan-2-yl)-6-((tetrahydro-2H-pyran-4-yl)methoxy)picolinamide] | 10.3 | > 10000
12 | Cc1nc([C@H](NC(=O)c2ccc(C3CC3)c(OCC3CC3)n2)C2CC2)no1 [Example 197, (−)-5-Cyclopropyl-6-cyclopropylmethoxy-pyridine-2-carboxylic acid [cyclopropyl-(5-methyl-[1,2,4]oxadiazol-3-yl)-methyl]-amide] | 33.2 | > 10000
13 | Cc1nc([C@@H](NC(=O)c2ccc(C3CC3)c(OCC3CC3)n2)C2CC2)no1 [Example 198, (+)-5-Cyclopropyl-6-cyclopropylmethoxy-pyridine-2-carboxylic acid [cyclopropyl-(5-methyl-[1,2,4]oxadiazol-3-yl)-methyl]-amide] | 6.8 | > 10000
14 | Cc1nc(C(C)(C)NC(=O)c2ccc(C3CC3)c(OCc3ccccn3)n2)no1 [Example 199, 5-Cyclopropyl-N-(2-(5-methyl-1,2,4-oxadiazol-3-yl)propan-2-yl)-6-(pyridin-2-ylmethoxy)picolinamide] | 151 | > 10000
15 | CC(C)C[C@H](NC(=O)c1ccc(C2CC2)c(OCc2ccccn2)n1)C(N)=O [Example 200, (S)-N-(1-Amino-4-methyl-1-oxopentan-2-yl)-5-cyclopropyl-6-(pyridin-2-ylmethoxy)picolinamide] | 23.3 | > 10000
16 | CNC(=O)[C@@H](NC(=O)c1ccc(C2CC2)c(OCc2ccccn2)n1)C(C)(C)C [Example 201, (S)-5-Cyclopropyl-N-(3,3-dimethyl-1-(methylamino)-1-oxobutan-2-yl)-6-(pyridin-2-ylmethoxy)picolinamide] | 26.7 | > 10000

Row | SMILES | EC50 (human CB2 receptors) [nM] | EC50 (human CB1 receptors) [nM]
17 | Cc1nc(C(C)(C)NC(=O)c2ccc(C3CC3)c(OCC3CCOCC3)n2)no1 [Example 202, 5-Cyclopropyl-N-(2-(5-methyl-1,2,4-oxadiazol-3-yl)propan-2-yl)-6-((tetrahydro-2H-pyran-4-yl)methoxy)picolinamide] | 23.6 | 615
18 | CNC(=O)[C@H](CC(C)C)NC(=O)c1ccc(C2CC2)c(OCC2CCOCC2)n1 [Example 203, (S)-5-Cyclopropyl-N-(4-methyl-1-(methylamino)-1-oxopentan-2-yl)-6-((tetrahydro-2H-pyran-4-yl)methoxy)picolinamide] | 2.7 | 74.9
19 | CNC(=O)[C@@H](NC(=O)c1cccc(-c2ccccc2)n1)C(C)(C)C [Example 204, (S)-N-(3,3-Dimethyl-1-(methylamino)-1-oxobutan-2-yl)-6-phenylpicolinamide] | 13.2 | 737
20 | CNC(=O)[C@H](CC(C)C)NC(=O)c1cccc(-c2ccccc2)n1 [Example 205, (S)-N-(4-Methyl-1-(methylamino)-1-oxopentan-2-yl)-6-phenylpicolinamide] | 57.8 | > 10000
21 | CNC(=O)[C@@H](NC(=O)c1ccc(N2CC(F)(F)C2)c(OCC2CCCO2)n1)C(C)(C)C (stereo partly drawn) [Example 206, 5-(3,3-Difluoroazetidin-1-yl)-N-((S)-3,3-dimethyl-1-(methylamino)-1-oxobutan-2-yl)-6-((tetrahydrofuran-2-yl)methoxy)picolinamide] | 25 | > 10000
22 | CCC(CC)(NC(=O)c1ccc(N2CC(F)(F)C2)c(OCC2CC2)n1)C(=O)O [Example 207, 2-(6-(Cyclopropylmethoxy)-5-(3,3-difluoroazetidin-1-yl)picolinamido)-2-ethylbutanoic acid] | 14.4 | > 10000
23 | CNC(=O)[C@@H](NC(=O)c1ccc(N2CC(F)(F)C2)c(OCC2CC2)n1)C(C)(C)C [Example 208, (S)-6-(Cyclopropylmethoxy)-5-(3,3-difluoroazetidin-1-yl)-N-(3,3-dimethyl-1-(methylamino)-1-oxobutan-2-yl)picolinamide] | 8.9 | > 10000
24 | CNC(=O)[C@H](CC(C)(C)C)NC(=O)c1ccc(N2CC(F)(F)C2)c(OCC2CC2)n1 [Example 209, (S)-6-(Cyclopropylmethoxy)-5-(3,3-difluoroazetidin-1-yl)-N-(4,4-dimethyl-1-(methylamino)-1-oxopentan-2-yl)picolinamide] | 2.5 | > 10000
25 | CNC(=O)[C@H](CC(C)C)NC(=O)c1cccc(-c2cccc(F)c2)n1 [Example 210, (S)-6-(3-Fluorophenyl)-N-(4-methyl-1-(methylamino)-1-oxopentan-2-yl)picolinamide] | 62 | > 10000
26 | CNC(=O)[C@H](CC(C)C)NC(=O)c1cccc(-c2cccc(C(F)(F)F)c2)n1 [Example 211, (S)-N-(4-Methyl-1-(methylamino)-1-oxopentan-2-yl)-6-(3-(trifluoromethyl)phenyl)picolinamide] | 57.1 | > 10000
27 | CNC(=O)[C@H](CC(C)C)NC(=O)c1cccc(-c2ccc(F)c(Cl)c2)n1 [Example 212, (S)-6-(3-Chloro-4-fluorophenyl)-N-(4-methyl-1-(methylamino)-1-oxopentan-2-yl)picolinamide] | 13.4 | > 10000
28 | CNC(=O)[C@@H](NC(=O)c1cccc(-c2cccc(F)c2)n1)C(C)(C)C [Example 213, (S)-N-(3,3-Dimethyl-1-(methylamino)-1-oxobutan-2-yl)-6-(3-fluorophenyl)picolinamide] | 12.8 | 361
29 | CNC(=O)[C@@H](NC(=O)c1cccc(-c2cccc(C(F)(F)F)c2)n1)C(C)(C)C [Example 214, (S)-N-(3,3-Dimethyl-1-(methylamino)-1-oxobutan-2-yl)-6-(3-(trifluoromethyl)phenyl)-picolinamide] | 53.7 | 1630
30 | CNC(=O)[C@@H](NC(=O)c1cccc(-c2cccc(OC)c2)n1)C(C)(C)C [Example 215, (S)-N-(3,3-Dimethyl-1-(methylamino)-1-oxobutan-2-yl)-6-(3-methoxyphenyl) picolinamide] | 125 | > 10000
31 | CNC(=O)[C@@H](NC(=O)c1cccc(-c2ccc(F)c(Cl)c2)n1)C(C)(C)C [Example 216, (S)-6-(3-Chloro-4-fluorophenyl)-N-(3,3-dimethyl-1-(methylamino)-1-oxobutan-2-yl)picolinamide] | 2.7 | 116
32 | O=C(N[C@@H](c1cccnc1)C(F)(F)F)c1ccc(C2CC2)c(OCC2CC2)n1 [Example 217, (S)-5-Cyclopropyl-6-(cyclopropylmethoxy)-N-(2,2,2-trifluoro-1-(pyridin-3-yl)ethyl)-picolinamide] | 41.1 | > 10000
